{"source": "patent US9951068B2", "about": "(Proximagen Limited, priority 2013, dated 2018)", "key": {"[1]": {"target": "purified recombinantly expressed human SSAO (Homo sapiens (Human), UniProt Q16853)", "sequence (Q16853 29-763)": "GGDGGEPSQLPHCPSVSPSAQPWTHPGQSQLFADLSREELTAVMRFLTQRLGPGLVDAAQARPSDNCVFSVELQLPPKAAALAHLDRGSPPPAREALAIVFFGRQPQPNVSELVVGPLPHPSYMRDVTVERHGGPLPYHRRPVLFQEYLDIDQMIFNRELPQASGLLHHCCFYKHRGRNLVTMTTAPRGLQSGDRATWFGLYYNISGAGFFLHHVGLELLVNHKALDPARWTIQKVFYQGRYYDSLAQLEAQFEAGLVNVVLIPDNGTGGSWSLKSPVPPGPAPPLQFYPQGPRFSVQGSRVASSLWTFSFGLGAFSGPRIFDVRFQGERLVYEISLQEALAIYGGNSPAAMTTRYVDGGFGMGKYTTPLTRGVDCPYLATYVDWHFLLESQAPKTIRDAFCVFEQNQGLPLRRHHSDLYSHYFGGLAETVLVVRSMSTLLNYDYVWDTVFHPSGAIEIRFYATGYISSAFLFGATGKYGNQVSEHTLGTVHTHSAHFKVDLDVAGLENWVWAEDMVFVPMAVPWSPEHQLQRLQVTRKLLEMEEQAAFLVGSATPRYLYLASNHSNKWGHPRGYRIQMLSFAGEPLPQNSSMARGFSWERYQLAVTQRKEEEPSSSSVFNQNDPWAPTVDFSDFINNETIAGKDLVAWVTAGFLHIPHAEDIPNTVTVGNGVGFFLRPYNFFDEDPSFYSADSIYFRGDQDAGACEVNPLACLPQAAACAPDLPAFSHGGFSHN", "assay": "SSAO enzyme inhibition assay (HRP-coupled hydrogen peroxide detection or 14C-benzaldehyde detection, benzylamine substrate)", "assay_type": "biochemical", "conditions": "SSAO inhibitory activity, human recombinant SSAO, RT", "method": "All primary assays were performed at RT. with purified recombinantly expressed human SSAO. Enzyme was prepared essentially as described in Öhman et al. (Protein Expression and Purification 46 (2006) 321-331). In addition, secondary- and selectivity assays were performed using SSAO prepared from various tissues or purified rat recombinant SSAO. The enzyme activity was assayed with benzylamine as substrate by measuring either benzaldehyde production, using ^14C-labeled substrate, or by utilizing the production of hydrogen peroxide in a horseradish peroxidase (HRP) coupled reaction. Briefly, test compounds were dissolved in dimethyl sulfoxide (DMSO) to a concentration of 10 mM. Dose-response measurements were assayed by either creating 1:10 serial dilutions in DMSO to produce a 7 point curve or by making 1:3 serial dilutions in DMSO to produce 11 point curves.\nIn a horseradish peroxidase (HRP) coupled reaction, hydrogen peroxide oxidation of 10-acetyl-3,7-dihydroxyphenoxazine produced resorufin, which is a highly fluorescent compound (Zhout and Panchuk-Voloshina. Analytical Biochemistry 253 (1997) 169-174; Amplex® Red Hydrogen Peroxide/peroxidase Assay kit, Invitrogen A22188). Enzyme and compounds in 50 mM sodium phosphate, pH 7.4 were set to pre-incubate in flat-bottomed microtiter plates for approximately 15 min before initiating the reaction by addition of a mixture of HRP, benzylamine and Amplex reagent. Benzylamine concentration was fixed at a concentration corresponding to the Michaelis constant, determined using standard procedures. Fluorescence intensity was then measured at several time points during 1-2 h, exciting at 544 nm and reading the emission at 590 nm. For the human SSAO assay final concentrations of the reagents in the assay wells were: SSAO enzyme 1 ug/ml, benzylamine 100 uM, Amplex reagent 20 uM, HRP 0.1 U/mL and varying concentrations of test compound. The inhibition was measured as % decrease of the signal compared to a control without inhibitor (only diluted DMSO). The background signal from a sample containing no SSAO enzyme was subtracted from all data points. Data was fitted to a four parameter logistic model and IC50 values were calculated using the GraphPad Prism 4 or XLfit 4 programs.\nSSAO activity was assayed using 14C-labeled benzylamine and analysed by measuring radioactive benzaldehyde. In a white 96-well optiplate (Packard), 20 uL of diluted test compound was pre-incubated at room temperature with 20 uL SSAO enzyme for approximately 15 min with continuous agitation. All dilutions were made with PBS. The reaction was initiated by adding 20 uL of the benzylamine substrate solution containing [7-14C] Benzylamine hydrochloride (CFA589, GE Healthcare). The plate was incubated for 1 h as above after which the reaction was stopped by acidification (10 uL 1M aq HCl). Then 90 uL Micro Scint-E solution (Perkin-Elmer) was added to each well and the plate was continuously mixed for 15 min. Phase separation occurred instantly and activity was read in a Topcount scintillation counter (Perkin-Elmer). In the final reaction well, the human recombinant SSAO concentration was 10 ug/ml. In order to optimize sensitivity, the substrate concentration was decreased as compared to the HRP coupled assay in order to get a higher fraction of radioactive product. In the human SSAO assay, benzylamine concentration was 40 uM (0.2 uCi/mL). Data was analysed as above."}, "[2]": {"target": "human ether a go-go related gene (hERG) K+ channel (Homo sapiens (Human), UniProt Q12809)", "sequence (Q12809 whole entry)": "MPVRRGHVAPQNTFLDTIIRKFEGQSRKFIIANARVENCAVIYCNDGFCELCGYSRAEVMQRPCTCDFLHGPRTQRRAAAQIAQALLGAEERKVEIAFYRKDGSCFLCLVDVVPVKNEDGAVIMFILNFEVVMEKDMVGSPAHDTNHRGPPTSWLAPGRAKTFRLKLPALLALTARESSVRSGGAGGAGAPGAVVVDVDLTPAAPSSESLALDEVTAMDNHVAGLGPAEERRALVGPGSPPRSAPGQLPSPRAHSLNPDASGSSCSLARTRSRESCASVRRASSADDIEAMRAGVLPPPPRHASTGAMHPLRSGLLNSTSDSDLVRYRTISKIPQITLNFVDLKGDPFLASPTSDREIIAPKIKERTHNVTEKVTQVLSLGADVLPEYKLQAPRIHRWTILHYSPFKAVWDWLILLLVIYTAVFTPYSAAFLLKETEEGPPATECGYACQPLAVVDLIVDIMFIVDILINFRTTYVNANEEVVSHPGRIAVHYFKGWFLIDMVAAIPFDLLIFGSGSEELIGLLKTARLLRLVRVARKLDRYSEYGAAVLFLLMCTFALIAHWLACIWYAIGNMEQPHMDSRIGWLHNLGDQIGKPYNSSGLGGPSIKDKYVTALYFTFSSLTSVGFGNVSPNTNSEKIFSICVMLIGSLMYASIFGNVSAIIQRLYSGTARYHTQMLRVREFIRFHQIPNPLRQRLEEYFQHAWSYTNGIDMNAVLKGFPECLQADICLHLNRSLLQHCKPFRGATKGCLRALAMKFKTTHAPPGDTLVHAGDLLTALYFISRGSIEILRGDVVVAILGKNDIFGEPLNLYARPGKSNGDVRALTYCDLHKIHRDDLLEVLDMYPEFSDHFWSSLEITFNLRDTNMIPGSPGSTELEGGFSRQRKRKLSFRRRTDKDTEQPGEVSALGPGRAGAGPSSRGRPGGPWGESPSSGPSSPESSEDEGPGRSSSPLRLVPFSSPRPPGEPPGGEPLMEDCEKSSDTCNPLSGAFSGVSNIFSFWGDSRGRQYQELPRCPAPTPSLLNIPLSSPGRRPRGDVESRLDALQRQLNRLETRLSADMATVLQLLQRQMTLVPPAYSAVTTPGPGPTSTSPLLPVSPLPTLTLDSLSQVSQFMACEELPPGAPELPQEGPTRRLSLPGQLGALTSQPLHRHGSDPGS", "assay": "hERG assay, IonWorks patch clamp electrophysiology", "assay_type": "cell-based", "conditions": "Chinese Hamster Lung cell line stably expressing hERG; max assay concentration 11 uM", "method": "Compounds of the invention were tested for inhibition of the human ether a go-go related gene (hERG) K^+ channel using IonWorks patch clamp electrophysiology. 8 Point concentration-response curves were generated on two occasions using 3-fold serial dilutions from the maximum assay concentration (11 uM). Electrophysiological recordings were made from a Chinese Hamster Lung cell line stably expressing the full length hERG channel. Single cell ion currents were measured in the perforated patch clamp configuration (100 ug/mL amphoterocin) at room temperature using an IonWorks Quattro instrument. The internal solution contained 140 mM KCl, 1 mM MgCl2, 1 mM EGTA and 20 mM HEPES and was buffered to pH 7.3. The external solution contained 138 mM NaCl, 2.7 mM KCl, 0.9 mM CaCl2, 0.5 mM MgCl2, 8 mM Na2HPO4 and 1.5 mM KH2PO4, and was buffered to pH 7.3. […] This sequence was repeated 5 times at a frequency of 0.25 Hz. Currents were measured from the tail step at the 5th pulse, and referenced to the holding current. Compounds were incubated for 6-7 min prior to a second measurement of the hERG signal using an identical pulse train. […] A control compound (quinidine) was used (see Table 20 below)."}}, "note": "pIC50: −log10 of the molar value.", "data": [{"smiles": "Clc1ccc(-n2c(-c3cnc(NC4CCOCC4)nc3)nc3ccncc32)cc1", "note": "[Example 11, 5-[3-(4-Chlorophenyl)-3H-imidazo[4,5-c]pyridin-2-yl]-N-(oxan-4-yl)pyrimidin-2-amine; bis(trifluoroacetic acid)]", "values": [{"measurement": "pIC50", "setting": "[1]", "result": "> 7.30"}, {"measurement": "pIC50", "setting": "[2]", "result": "< 5.00"}]}, {"smiles": "O=C1CN(c2ncc(-c3nc4ccncc4n3-c3ccc(Cl)cc3)cn2)CCN1", "note": "[Example 13, 4-{5-[3-(4-Chlorophenyl)-3H-imidazo[4,5-c]pyridin-2-yl]pyrimidin-2-yl}piperazin-2-one]", "values": [{"measurement": "pIC50", "setting": "[1]", "result": "> 7.30"}, {"measurement": "pIC50", "setting": "[2]", "result": "< 5.00"}]}, {"smiles": "Cc1cc(N2CCOCC2)ncc1-c1nc2ccncc2n1-c1ccc(F)cc1", "note": "[Example 21, 4-{5-[3-(4-Fluorophenyl)-3H-imidazo[4,5-c]pyridin-2-yl]-4-methylpyridin-2-yl}morpholine]", "values": [{"measurement": "pIC50", "setting": "[1]", "result": "> 7.30"}, {"measurement": "pIC50", "setting": "[2]", "result": "< 5.00"}]}, {"smiles": "C[C@@H]1CN(c2ncc(-c3nc4ccncc4n3-c3ccc(F)cc3)cn2)C[C@H](C)O1", "note": "[Example 23, (2R,6S)-4-{5-[3-(4-Fluorophenyl)-3H-imidazo[4,5-c]pyridin-2-yl]pyrimidin-2-yl}-2,6-dimethylmorpholine]", "values": [{"measurement": "pIC50", "setting": "[1]", "result": "> 7.30"}, {"measurement": "pIC50", "setting": "[2]", "result": "< 5.00"}]}, {"smiles": "CC1(C)CN(c2ncc(-c3nc4ccncc4n3-c3ccc(F)cc3)cn2)CCO1", "note": "[Example 24, 4-{5-[3-(4-Fluorophenyl)-3H-imidazo[4,5-c]pyridin-2-yl]pyrimidin-2-yl}-2,2-dimethylmorpholine]", "values": [{"measurement": "pIC50", "setting": "[1]", "result": "> 7.30"}, {"measurement": "pIC50", "setting": "[2]", "result": "< 5.00"}]}, {"smiles": "CN1CCN(Cc2ccc(-c3nc4ccncc4n3-c3ccc(Cl)cc3)cc2)CC1", "note": "[Example 46, 1-({4-[3-(4-Chlorophenyl)-3H-imidazo[4,5-c]pyridin-2-yl]phenyl}methyl)-4-methylpiperazine; formic acid]", "values": [{"measurement": "pIC50", "setting": "[1]", "result": "> 7.30"}, {"measurement": "pIC50", "setting": "[2]", "result": "< 5.00"}]}, {"smiles": "Clc1ccc(-n2c(-c3ccc(N4CCNCC4)nc3)nc3ccncc32)cc1", "note": "[Example 50, 1-{5-[3-(4-Chlorophenyl)-3H-imidazo[4,5-c]pyridin-2-yl]pyridin-2-yl}piperazine]", "values": [{"measurement": "pIC50", "setting": "[1]", "result": "> 7.30"}, {"measurement": "pIC50", "setting": "[2]", "result": "< 5.00"}]}, {"smiles": "Fc1ccc(-n2c(-c3cnc(N4CCOCC4)nc3)nc3ccncc32)cc1", "note": "[Example 52, 4-{5-[3-(4-Fluorophenyl)-3H-imidazo[4,5-c]pyridin-2-yl]pyrimidin-2-yl}morpholine]", "values": [{"measurement": "pIC50", "setting": "[1]", "result": "> 7.30"}, {"measurement": "pIC50", "setting": "[2]", "result": "< 5.00"}]}, {"smiles": "Cc1ccc(-n2c(-c3cnc(N4CCOCC4)nc3)nc3ccncc32)cc1", "note": "[Example 57, 4-{5-[3-(4-Methylphenyl)-3H-imidazo[4,5-c]pyridin-2-yl]pyrimidin-2-yl}morpholine]", "values": [{"measurement": "pIC50", "setting": "[2]", "result": "< 5.00"}]}, {"smiles": "Cc1ccc(-n2c(-c3ccc(N4CCOCC4)nc3)nc3ccncc32)cc1", "note": "[Example 63, 4-{5-[3-(4-Methylphenyl)-3H-imidazo[4,5-c]pyridin-2-yl]pyridin-2-yl}morpholine]", "values": [{"measurement": "pIC50", "setting": "[2]", "result": "< 5.00"}]}, {"smiles": "Cc1ccc(-n2c(-c3ccc(N4CCOCC4)nc3)nc3ccncc32)cn1", "note": "[Example 64, 4-{5-[3-(6-Methylpyridin-3-yl)-3H-imidazo[4,5-c]pyridin-2-yl]pyridin-2-yl}morpholine]", "values": [{"measurement": "pIC50", "setting": "[2]", "result": "< 5.00"}]}, {"smiles": "Fc1ccc(-n2c(-c3cnc(N4CCCC4)nc3)nc3ccncc32)cc1", "note": "[Example 69, 5-[3-(4-Fluorophenyl)-3H-imidazo[4,5-c]pyridin-2-yl]-2-(pyrrolidin-1-yl)pyrimidine]", "values": [{"measurement": "pIC50", "setting": "[1]", "result": "> 7.30"}, {"measurement": "pIC50", "setting": "[2]", "result": "< 5.00"}]}, {"smiles": "CC1CN(c2ccc(-c3nc4ccncc4n3-c3ccc(F)cc3)cn2)CCO1", "note": "(centres unmarked) [Example 70, 4-{5-[3-(4-Fluorophenyl)-3H-imidazo[4,5-c]pyridin-2-yl]pyridin-2-yl}-2-methylmorpholine]", "values": [{"measurement": "pIC50", "setting": "[1]", "result": "> 7.30"}, {"measurement": "pIC50", "setting": "[2]", "result": "< 5.00"}]}, {"smiles": "CN(C)c1ccc(-c2nc3ccncc3n2-c2ccc(F)cc2)cn1", "note": "[Example 71, 5-[3-(4-Fluorophenyl)-3H-imidazo[4,5-c]pyridin-2-yl]-N,N-dimethylpyridin-2-amine]", "values": [{"measurement": "pIC50", "setting": "[2]", "result": "< 5.00"}]}, {"smiles": "Clc1ccc(-n2c(-c3cnc(N4CCOCC4)nc3)nc3ccncc32)nc1", "note": "[Example 75, 4-{5-[3-(5-Chloropyridin-2-yl)-3H-imidazo[4,5-c]pyridin-2-yl]pyrimidin-2-yl}morpholine; tris(trifluoroacetic acid)]", "values": [{"measurement": "pIC50", "setting": "[1]", "result": "> 7.30"}, {"measurement": "pIC50", "setting": "[2]", "result": "< 5.00"}]}, {"smiles": "Fc1cc(Cl)ccc1-n1c(-c2cnc(N3CCOCC3)nc2)nc2ccncc21", "note": "[Example 77, 4-{5-[3-(4-Chloro-2-fluorophenyl)-3H-imidazo[4,5-c]pyridin-2-yl]pyrimidin-2-yl}morpholine]", "values": [{"measurement": "pIC50", "setting": "[2]", "result": "< 5.00"}]}, {"smiles": "Fc1ccc(-n2c(-c3cnc(N4CCOCC4)nc3)nc3ccncc32)c(F)c1", "note": "[Example 78, 4-{5-[3-(2,4-Difluorophenyl)-3H-imidazo[4,5-c]pyridin-2-yl]pyrimidin-2-yl}morpholine]", "values": [{"measurement": "pIC50", "setting": "[1]", "result": "> 7.30"}, {"measurement": "pIC50", "setting": "[2]", "result": "< 5.00"}]}, {"smiles": "Fc1cc(Cl)ccc1-n1c(-c2ccc(N3CCOCC3)nc2)nc2ccncc21", "note": "[Example 80, 4-{5-[3-(4-Chloro-2-fluorophenyl)-3H-imidazo[4,5-c]pyridin-2-yl]pyridin-2-yl}morpholine]", "values": [{"measurement": "pIC50", "setting": "[2]", "result": "< 5.00"}]}, {"smiles": "Clc1ccc(-n2c(-c3ccc(N4CCOCC4)nc3)nc3ccncc32)nc1", "note": "[Example 81, 4-{5-[3-(5-Chloropyridin-2-yl)-3H-imidazo[4,5-c]pyridin-2-yl]pyridin-2-yl}morpholine]", "values": [{"measurement": "pIC50", "setting": "[1]", "result": "> 7.30"}, {"measurement": "pIC50", "setting": "[2]", "result": "< 5.00"}]}, {"smiles": "Cc1ccc(-n2c(-c3ccc(N4CCOCC4)nc3)nc3ccncc32)nc1", "note": "[Example 82, 4-{5-[3-(5-Methylpyridin-2-yl)-3H-imidazo[4,5-c]pyridin-2-yl]pyridin-2-yl}morpholine]", "values": [{"measurement": "pIC50", "setting": "[1]", "result": "> 7.30"}, {"measurement": "pIC50", "setting": "[2]", "result": "< 5.00"}]}, {"smiles": "CC(=O)NC1CCN(c2ccc(-c3nc4ccncc4n3-c3ccc(Cl)cc3)cn2)CC1", "note": "[Example 85, N-(1-{5-[3-(4-Chlorophenyl)-3H-imidazo[4,5-c]pyridin-2-yl]pyridin-2-yl}piperidin-4-yl)acetamide]", "values": [{"measurement": "pIC50", "setting": "[1]", "result": "> 7.30"}, {"measurement": "pIC50", "setting": "[2]", "result": "< 5.00"}]}, {"smiles": "NC(=O)NC1CCN(c2ccc(-c3nc4ccncc4n3-c3ccc(Cl)cc3)cn2)CC1", "note": "[Example 91, (1-{5-[3-(4-Chlorophenyl)-3H-imidazo[4,5-c]pyridin-2-yl]pyridin-2-yl}piperidin-4-yl)urea; bis(trifluoroacetic acid)]", "values": [{"measurement": "pIC50", "setting": "[2]", "result": "< 5.00"}]}, {"smiles": "c1ccc(-n2c(-c3cnc(N4CCOCC4)nc3)nc3ccncc32)cc1", "note": "[Example 95, 4-(5-{3-Phenyl-3H-imidazo[4,5-c]pyridin-2-yl}pyrimidin-2-yl)morpholine]", "values": [{"measurement": "pIC50", "setting": "[2]", "result": "< 5.00"}]}, {"smiles": "Fc1ccc(-n2c(-c3cnc(N4CCOCC4)c(F)c3)nc3ccncc32)cc1", "note": "[Example 98, 4-{3-Fluoro-5-[3-(4-fluorophenyl)-3H-imidazo[4,5-c]pyridin-2-yl]pyridin-2-yl}morpholine]", "values": [{"measurement": "pIC50", "setting": "[2]", "result": "< 5.00"}]}, {"smiles": "Nc1ccc(-c2nc3ccncc3n2-c2ccc(Cl)cc2)cn1", "note": "[Example 110, 5-[3-(4-Chlorophenyl)-3H-imidazo[4,5-c]pyridin-2-yl]pyridin-2-amine]", "values": [{"measurement": "pIC50", "setting": "[2]", "result": "< 5.00"}]}, {"smiles": "COCCN(C)c1ncc(-c2nc3ccncc3n2-c2ccc(C)cc2)cn1", "note": "[Example 117, N-(2-Methoxyethyl)-N-methyl-5-[3-(4-methylphenyl)-3H-imidazo[4,5-c]pyridin-2-yl]pyrimidin-2-amine]", "values": [{"measurement": "pIC50", "setting": "[2]", "result": "< 5.00"}]}]}
